In PubChem BioAssay AID248 (DTP/NCI, 2004):
Values joined by “and” are separate entries in the source; they are usually repeats but may differ in a detail not shown here. Equal entries are not always repeated. Toxic doses and inconclusive results are not listed.

Tested on: L1210 leukemia ip in BDF1 mice, survival T/C
Experiment: NCI In Vivo Anticancer Drug Screen. Data for tumor model L1210 Leukemia (intraperitoneal) in B6D2F1 (BDF1) mice
Conditions: endpoint: mean survival time, higher = longer survival
Method in brief: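 Tumor was transplanted into mice, which were then dosed with test compound or vehicle alone. Survival was recorded for each group, and the treated figure was expressed relative to the control figure.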

[1] = dose: 100.0 mg/kg/injection, schedule: Q04DX003 (ip), vehicle: saline with Tween-80
[2] = dose: 100.0 mg/kg/injection, schedule: Q01DX001 (ip), vehicle: saline with Tween-80
[3] = dose: 200.0 mg/kg/injection, schedule: Q01DX001 (ip), vehicle: saline with Tween-80

C=CCN(CC#N)CC#N
T/C (dose: 5.0 mg/kg/injection, schedule: Q04DX003 (ip), vehicle: Klucel (hydroxypropylcellulose) (HPC)): 98 % of control
T/C (dose: 10.0 mg/kg/injection, schedule: Q04DX003 (ip), vehicle: Klucel (hydroxypropylcellulose) (HPC)): 100 % of control (2×) and 86 % of control

NC(N)=NCCCC(NC(=O)c1ccccc1)C(=O)O (stereo not given)
T/C (dose: 100.0 mg/kg/injection, schedule: Q01DX001 (ip), vehicle: other): 104 % of control
T/C (dose: 100.0 mg/kg/injection, schedule: Q01DX009 (ip), vehicle: other): 101 % of control
T/C (dose: 100.0 mg/kg/injection, schedule: Q04DX003 (ip), vehicle: other): 93 % of control
T/C (dose: 200.0 mg/kg/injection, schedule: Q01DX001 (ip), vehicle: other): 100 % of control
T/C (dose: 200.0 mg/kg/injection, schedule: Q01DX009 (ip), vehicle: other): 107 % of control
T/C (dose: 200.0 mg/kg/injection, schedule: Q04DX003 (ip), vehicle: other): 90 % of control
T/C (dose: 400.0 mg/kg/injection, schedule: Q01DX001 (ip), vehicle: other): 100 % of control
T/C (dose: 400.0 mg/kg/injection, schedule: Q01DX009 (ip), vehicle: other): 100 % of control
T/C (dose: 400.0 mg/kg/injection, schedule: Q04DX003 (ip), vehicle: other): 96 % of control

COc1cc(NS(C)(=O)=O)ccc1Nc1c2ccc(Cl)cc2nc2c(OC)cccc12
T/C (dose: 6.25 mg/kg/injection, schedule: Q01DX009 (ip), vehicle: water): 155 % of control
T/C (dose: 12.5 mg/kg/injection, schedule: Q01DX009 (ip), vehicle: water): 98 % of control
T/C (dose: 13.0 mg/kg/injection, schedule: Q04DX003 (ip), vehicle: saline with Tween-80): 155 % of control
T/C (dose: 20.0 mg/kg/injection, schedule: Q04DX003 (ip), vehicle: saline with Tween-80): 247 % of control
T/C (dose: 29.0 mg/kg/injection, schedule: Q04DX003 (ip), vehicle: saline with Tween-80): 253 % of control
T/C (dose: 30.0 mg/kg/injection, schedule: Q04DX003 (ip), vehicle: saline with Tween-80): 296 % of control
T/C (dose: 44.0 mg/kg/injection, schedule: Q04DX003 (ip), vehicle: saline with Tween-80): 260 % of control
T/C (dose: 66.0 mg/kg/injection, schedule: Q04DX003 (ip), vehicle: saline with Tween-80): 153 % of control
T/C [1]: 89 % of control

c1cnc(OCCN2CC2)nc1
T/C (dose: 25.0 mg/kg/injection, schedule: Q01DX001 (ip), vehicle: carboxymethylcellulose (CMC)): 93 % of control
T/C (dose: 50.0 mg/kg/injection, schedule: Q01DX001 (ip), vehicle: carboxymethylcellulose (CMC)): 95 % of control

CC(=O)N(C)N
T/C (dose: 12.5 mg/kg/injection, schedule: Q01DX009 (ip), vehicle: saline): 98 % of control
T/C (dose: 12.5 mg/kg/injection, schedule: Q04DX003 (ip), vehicle: saline): 112 % of control
T/C (dose: 25.0 mg/kg/injection, schedule: Q01DX009 (ip), vehicle: saline): 103 % of control
T/C (dose: 25.0 mg/kg/injection, schedule: Q04DX003 (ip), vehicle: saline): 106 % of control
T/C (dose: 50.0 mg/kg/injection, schedule: Q01DX009 (ip), vehicle: saline): 104 % of control
T/C (dose: 50.0 mg/kg/injection, schedule: Q04DX003 (ip), vehicle: saline): 106 % of control
T/C (dose: 100.0 mg/kg/injection, schedule: Q01DX009 (ip), vehicle: saline): 117 % of control
T/C (dose: 100.0 mg/kg/injection, schedule: Q04DX003 (ip), vehicle: saline): 108 % of control
T/C (dose: 200.0 mg/kg/injection, schedule: Q04DX003 (ip), vehicle: saline): 105 % of control

COc1ccc(Cl)cc1NC(=O)OCC(Cl)(Cl)Cl
T/C [2]: 95 % of control
T/C (dose: 100.0 mg/kg/injection, schedule: Q01DX009 (ip), vehicle: saline with Tween-80): 100 % of control and 102 % of control
T/C (dose: 100.0 mg/kg/injection, schedule: Q04DX002 (ip), vehicle: saline with Tween-80): 93 % of control and 91 % of control
T/C [1]: 103 % of control
T/C [3]: 94 % of control
T/C (dose: 200.0 mg/kg/injection, schedule: Q01DX009 (ip), vehicle: saline with Tween-80): 96 % of control and 115 % of control
T/C (dose: 200.0 mg/kg/injection, schedule: Q04DX002 (ip), vehicle: saline with Tween-80): 94 % of control and 101 % of control
T/C (dose: 200.0 mg/kg/injection, schedule: Q04DX003 (ip), vehicle: saline with Tween-80): 94 % of control
T/C (dose: 400.0 mg/kg/injection, schedule: Q01DX001 (ip), vehicle: saline with Tween-80): 94 % of control
T/C (dose: 400.0 mg/kg/injection, schedule: Q01DX009 (ip), vehicle: saline with Tween-80): 100 % of control and 91 % of control
T/C (dose: 400.0 mg/kg/injection, schedule: Q04DX002 (ip), vehicle: saline with Tween-80): 97 % of control and 108 % of control
T/C (dose: 400.0 mg/kg/injection, schedule: Q04DX003 (ip), vehicle: saline with Tween-80): 97 % of control

[C-]#[N+]CCc1ccccc1
T/C [2]: 98 % of control
T/C [3]: 96 % of control
